Assay results taken from US20090286878A1, “POLYOL DERIVED ANTI-MICROBIAL AGENTS AND COMPOSITIONS” (priority 2008, published 2009).

Key:
Assay in all cases: Fungicidal activity, modified EN12175 test
Type in all cases: cell-based
Aspergillus niger = conditions: 1% concentration; for A. niger log reduction 30 min: 30 min contact; for A. niger log reduction 30 min / A. niger log reduction 1 h / A. niger log reduction 24 h: vs water control; for A. niger log reduction 1 h: 1 h contact; for A. niger log reduction 24 h: 24 h contact; for A. niger cfu/mL (residual spore cell count): inoculum 2.60E+08 cfu/mL, room temperature
Protocol: (§1) Fungicidal activity is tested according to trivial modifications of the standard EN12175 test method. […] Penicillium funiculosum, Aspergillus niger and Aureobasidium pullulans are tested as important mold strains. The resulting cell count reduction is compared to a water control. […]

Penicillium funiculosum = conditions: 1% concentration; for P. funic. log reduction 30 min: 30 min contact; for P. funic. log reduction 30 min / P. funic. log reduction 1 h / P. funic. log reduction 24 h: vs water control; for P. funic. log reduction 1 h: 1 h contact; for P. funic. log reduction 24 h: 24 h contact; for P. funic. cfu/mL (residual spore cell count): inoculum 3.60E+07 cfu/mL, room temperature
Protocol: as §1

Aureobasidium pullulans = conditions: 1% concentration; for A. pull. log reduction 30 min: 30 min contact; for A. pull. log reduction 30 min / A. pull. log reduction 1 h / A. pull. log reduction 24 h: vs water control; for A. pull. log reduction 1 h: 1 h contact; for A. pull. log reduction 24 h: 24 h contact; for A. pull. cfu/mL (residual spore cell count): inoculum 4.0E+06 cfu/mL, room temperature
Protocol: as §1

| Compound | A. niger log reduction 30 min (Aspergillus niger) [log] | A. niger log reduction 1 h (Aspergillus niger) [log] | A. niger log reduction 24 h (Aspergillus niger) [log] | A. niger cfu/mL (residual spore cell count) (Aspergillus niger) [cfu/mL] | P. funic. log reduction 30 min (Penicillium funiculosum) [log] | P. funic. log reduction 1 h (Penicillium funiculosum) [log] | P. funic. log reduction 24 h (Penicillium funiculosum) [log] | P. funic. cfu/mL (residual spore cell count) (Penicillium funiculosum) [cfu/mL] | A. pull. log reduction 30 min (Aureobasidium pullulans) [log] | A. pull. log reduction 1 h (Aureobasidium pullulans) [log] | A. pull. log reduction 24 h (Aureobasidium pullulans) [log] | A. pull. cfu/mL (residual spore cell count) (Aureobasidium pullulans) [cfu/mL] |
| --- | --- | --- | --- | --- | --- | --- | --- | --- | --- | --- | --- | --- |
| CCCCCCCCCCCCNCCCCCC(=O)OCC(CC)(COC(=O)CCCCCNCCCCCCCCCCCC)COC(=O)CCCCCNCCCCCCCCCCCC [Ex 16] | >4 | >4 | >4 | <10 | >4 | >4 | >4 | <10 | >4 | >4 | >4 | <10 |
| CCCCCCCCNCCC(=O)OCC(CC)(COC(=O)CCNCCCCCCCC)COC(=O)CNCCCCCCCC [Ex 18] | >4 | >4 | >4 | <10 | >4 | >4 | >4 | <10 | >4 | >4 | >4 | <10 |
